Test results published in US20130315825A1, “TRICYCLIC HETEROAROMATIC COMPOUNDS AS ALPHA-SYNUCLEIN LIGANDS” (Washington University, priority 2012, published 2013).
Read-outs that look alike come from different tables or passages of the source.

Key:
Aβ plaques in AD brain = conditions: cited from earlier work; for Kd: binding to Aβ plaques
α-synuclein fibrils [1] = target: T1, α-synuclein fibrils (Homo sapiens, UniProt P37840); conditions: [125I]SIL23 competition, 95% confidence intervals in parentheses
Method: (§1) The prepared fibril mixture was centrifuged at 15,000×g for 15 min to prepare fibrils for binding assays.
(§2) Reactions were incubated at 37° C. for 2 h before quantifying bound radioligand as described above for the saturation binding assay. All data points were performed in triplicate. Data were analyzed using Graphpad Prism software (version 4.0) to obtain EC50 values by fitting the data to the equation Y=bottom+(top-bottom)/(1+10^(x-10gEC^50^)).
Data points represent mean+/−s.d. (n=3).

[2] = target: Human PD brain homogenate (Homo sapiens, UniProt P37840); conditions: [125I]SIL23 competition, human PD brain homogenate (insoluble fraction); 95% confidence intervals in parentheses
Method: Samples were used from both male and female subjects.
as §2

Aβ1-42 fibrils [3] = target: T2, Aβ1-42 fibrils (Homo sapiens, UniProt P05067); assay: [125I]SIL23 competitive binding assay, Aβ1-42 fibrils; conditions: [125I]SIL23 competition, 95% confidence intervals in parentheses
T2 construct: Synthetic Aβ1-42 peptide (1 mg) (Bachem, Torrance, Calif.); purchased Bachem, Torrance, Calif; host or cells: synthetic peptide
T2 sequence (P05067 672-713 limits assumed): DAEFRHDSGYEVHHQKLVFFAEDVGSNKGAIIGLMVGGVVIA

α-synuclein fibrils [4] = target: T1, α-synuclein fibrils; assay: ThT competitive binding assay with α-synuclein fibrils
[5] = Ex vivo biodistribution in Sprague-Dawley rats; conditions: for brain uptake: male SD rats (n=4);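 for all read-outs here: four rats in each time-point group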
Method: Group of rats (n=4) were used for each time point. […] The whole brain was quickly removed and dissected into segments consisting of brain stem, thalamus, striatum, hippocampus, cortex, and cerebellum. The remainder of the brain was also collected to determine total brain uptake. […] Tissues were weighed, and the % I.D./g for each tissue was calculated.

tau fibrils = target: T3, tau fibrils (Homo sapiens, UniProt P10636); assay: [125I]SIL23 saturation binding, recombinant tau fibrils
T3 construct: made in house; host or cells: BL21(DE3)RIL E. coli
T3 sequence (P10636 560-692): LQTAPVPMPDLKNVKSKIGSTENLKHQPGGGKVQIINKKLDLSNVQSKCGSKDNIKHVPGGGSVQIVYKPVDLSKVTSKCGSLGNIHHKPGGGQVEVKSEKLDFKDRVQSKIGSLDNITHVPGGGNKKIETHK
Method: Recombinant tau protein was produced in E. Coli.
Filters containing the bound ligand were mixed with 150 μl of Optiphase Supermix scintillation cocktail (PerkinElmer) and counted immediately. All data points were performed in triplicate.

Aβ1-42 fibrils [6] = target: T2, Aβ1-42 fibrils; assay: [125I]SIL23 saturation binding, synthetic Aβ1-42 fibrils
Method: Synthetic Aβ1-42 peptide (1 mg) (Bachem, Torrance, Calif.) was first dissolved in 50 μl DMSO. An additional 925 μl of mQ-H2O was added. […] To determine the concentration of fibrils, the fibril reaction mix was centrifuged at 15,000×g for 15 min to separate fibrils from monomer. The concentration of Aβ monomer in the supernatant was determined in a BCA protein assay using a BSA standard curve that contained DMSO at a percentage equivalent to the samples.
as §1

CNc1ccc(/C=C/c2ccc(OCCOCCOCCF)nc2)cc1 [AV-45]
average Bmax / binding site density (Aβ plaques in AD brain; AV-45 binding in AD brain): 8.8 pmol/mg protein
Kd (Aβ plaques in AD brain): 3.7 nM

CN(C)c1ncc(/C=C/c2nc3ccc(OCCF)cc3o2)s1 [BF227]
Ki (α-synuclein fibrils [1]): 39.7 nM
Ki [2]: 138 nM

O=C(O)c1cc(/N=N/c2ccc(-c3ccc(/N=N/c4ccc(O)c(C(=O)O)c4)cc3)cc2)ccc1O [Chrysamine G]
Ki (α-synuclein fibrils [1]): 432 nM
Ki [2]: 367 nM

CNc1ccc(-c2nc3ccc(O)cc3s2)cc1 [PIB]
Ki (α-synuclein fibrils [1]): 116 nM
Ki [2]: 99.2 nM
average Bmax / binding site density (Aβ plaques in AD brain; PiB binding in AD brain): 1407 pmol/g wet weight
Kd (Aβ plaques in AD brain): 2.5 nM

COc1ccc2c(c1)Sc1cc([N+](=O)[O-])ccc1N2 [SIL5, 3-methoxy-7-nitro-10H-phenothiazine]
Ki (Aβ1-42 fibrils [3]): 110 nM

COc1ccc2c(c1)Sc1cc(C(F)(F)F)ccc1N2 [TZ5B-71, 3-methoxy-7-(trifluoromethyl)-10H-phenothiazine]
IC50 (α-synuclein fibrils [4]): 742.7 ± 1.1 nM
Ki (α-synuclein fibrils [4]): 178 nM

COc1ccc2c(c1)Sc1cnccc1N2 [TZ5B-79-1-1, 8-methoxy-5H-benzo[b]pyrido[4,3-e][1,4]thiazine]
IC50 (α-synuclein fibrils [4]): 2231 ± 1.2 nM
Ki (α-synuclein fibrils [4]): 536 nM

COc1ccc2c(c1)Sc1cccnc1N2 [TZ5B-95-1, 7-methoxy-10H-benzo[b]pyrido[2,3-e][1,4]thiazine]
IC50 (α-synuclein fibrils [4]): 6624 ± 1.4 nM
Ki (α-synuclein fibrils [4]): 1590 nM

COc1cccc2c1N(C(C)=O)c1ccc(C(F)(F)F)cc1S2 [TZ5B-145-2, 1-(1-methoxy-7-(trifluoromethyl)-10H-phenothiazin-10-yl)ethanone]
IC50 (α-synuclein fibrils [4]): 1048 ± 1.9 nM
Ki (α-synuclein fibrils [4]): 252 nM

COc1ccc2c(c1)Nc1ccc(C(F)(F)F)cc1S2 [TZ5B-159-1, 2-methoxy-7-(trifluoromethyl)-10H-phenothiazine]
IC50 (α-synuclein fibrils [4]): 1082 ± 2.4 nM
Ki (α-synuclein fibrils [4]): 260 nM

COc1ccc2c(c1)Nc1ccc([N+](=O)[O-])cc1S2 [TZ10-1-2-1, 2-methoxy-7-nitro-10H-phenothiazine]
IC50 (α-synuclein fibrils [4]): 152 ± 1.1 nM
Ki (α-synuclein fibrils [4]): 36.5 nM

COc1cccc2c1Nc1ccc([N+](=O)[O-])cc1S2 [TZ10-27-1, 1-methoxy-7-nitro-10H-phenothiazine]
IC50 (α-synuclein fibrils [4]): 1426 ± 1.2 nM
Ki (α-synuclein fibrils [4]): 342 nM

COc1ccc2c(c1)Nc1cc([N+](=O)[O-])ccc1N2 [TZ16-133-2, 2-methoxy-8-nitro-5,10-dihydrophenazine]
Ki (α-synuclein fibrils [4]): > 1000 nM

CC(=O)N1c2ccccc2N(C(C)=O)c2ccccc21 [TZ16-147-3, 1,1′-(phenazine-5,10-diyl)diethanone]
Ki (α-synuclein fibrils [4]): > 1000 nM

COc1ccc2c(c1)Oc1cc([N+](=O)[O-])ccc1N2 [TZ-2-33, 3-methoxy-7-nitro-10H-phenoxazine]
IC50 (α-synuclein fibrils [4]): 106.9 ± 1 nM
Ki (α-synuclein fibrils [4]): 25.7 nM

COc1ccc2c(c1)Nc1ccc([N+](=O)[O-])cc1O2 [TZ-2-39, 2-methoxy-7-nitro-10H-phenoxazine]
IC50 (α-synuclein fibrils [4]): 39.6 ± 1.2 nM
Ki (α-synuclein fibrils [4]): 9.5 nM

COc1ccc2c(c1)Oc1cc([N+](=O)[O-])cnc1N2 [TZ-2-48, 7-methoxy-3-nitro-10H-benzo[b]pyrido[2,3-e][1,4]-oxazine]
IC50 (α-synuclein fibrils [4]): 111.8 ± 1.1 nM
Ki (α-synuclein fibrils [4]): 26.8 nM

COc1ccc2c(c1)Nc1c(cccc1[N+](=O)[O-])O2 [TZ-2-52, 8-methoxy-1-nitro-10H-phenoxazine]
IC50 (α-synuclein fibrils [4]): 500.9 ± 1.1 nM
Ki (α-synuclein fibrils [4]): 120 nM

COc1ccc2c(c1)Oc1cccc([N+](=O)[O-])c1N2 [TZ-2-54, 7-methoxy-1-nitro-10H-phenoxazine]
IC50 (α-synuclein fibrils [4]): 686.9 ± 1.2 nM
Ki (α-synuclein fibrils [4]): 165 nM

O=[N+]([O-])c1ccc2c(c1)Sc1cc(OCC[18F])ccc1N2 [[^18F]SIL26]
Biodistribution ([5]; blood, 5 min, male Sprague-Dawley rats): 0.553 ± 0.047 I.D. %/gram
Biodistribution ([5]; blood, 30 min, male Sprague-Dawley rats): 0.589 ± 0.016 I.D. %/gram
Biodistribution ([5]; blood, 60 min, male Sprague-Dawley rats): 0.606 ± 0.035 I.D. %/gram
Biodistribution ([5]; blood, 120 min, male Sprague-Dawley rats): 0.585 ± 0.046 I.D. %/gram
defluorination ([5]; bone uptake from 5 to 60 min): no defluorination was observed
Biodistribution ([5]; bone, 5 min, male Sprague-Dawley rats): 0.340 ± 0.027 I.D. %/gram
Biodistribution ([5]; bone, 30 min, male Sprague-Dawley rats): 0.309 ± 0.020 I.D. %/gram
Biodistribution ([5]; bone, 60 min, male Sprague-Dawley rats): 0.407 ± 0.043 I.D. %/gram
Biodistribution ([5]; bone, 120 min, male Sprague-Dawley rats): 0.644±0.071 I.D. %/gram
brain uptake ([5]; 5 min post i.v. injection): 0.758±0.013 % I.D./g
brain uptake ([5]; 30 min post i.v. injection): 0.465±0.018 % I.D./g
brain uptake ([5]; 60 min post i.v. injection): 0.410±0.030 % I.D./g
brain uptake ([5]; 120 min post i.v. injection): 0.359±0.016 % I.D./g
Biodistribution ([5]; fat, 5 min, male Sprague-Dawley rats): 0.255 ± 0.037 I.D. %/gram
Biodistribution ([5]; fat, 30 min, male Sprague-Dawley rats): 0.425 ± 0.023 I.D. %/gram
Biodistribution ([5]; fat, 60 min, male Sprague-Dawley rats): 0.371 ± 0.067 I.D. %/gram
Biodistribution ([5]; fat, 120 min, male Sprague-Dawley rats): 0.293 ± 0.048 I.D. %/gram
Biodistribution ([5]; heart, 5 min, male Sprague-Dawley rats): 0.757 ± 0.033 I.D. %/gram
Biodistribution ([5]; heart, 30 min, male Sprague-Dawley rats): 0.505 ± 0.015 I.D. %/gram
Biodistribution ([5]; heart, 60 min, male Sprague-Dawley rats): 0.466 ± 0.040 I.D. %/gram
Biodistribution ([5]; heart, 120 min, male Sprague-Dawley rats): 0.410 ± 0.030 I.D. %/gram
Biodistribution ([5]; kidney, 5 min, male Sprague-Dawley rats): 1.070 ± 0.058 I.D. %/gram
Biodistribution ([5]; kidney, 30 min, male Sprague-Dawley rats): 0.988 ± 0.090 I.D. %/gram
Biodistribution ([5]; kidney, 60 min, male Sprague-Dawley rats): 0.678 ± 0.032 I.D. %/gram
Biodistribution ([5]; kidney, 120 min, male Sprague-Dawley rats): 0.659 ± 0.027 I.D. %/gram
Biodistribution ([5]; liver, 5 min, male Sprague-Dawley rats): 1.626±0.221 I.D. %/gram
Biodistribution ([5]; liver, 30 min, male Sprague-Dawley rats): 0.847 ± 0.027 I.D. %/gram
Biodistribution ([5]; liver, 60 min, male Sprague-Dawley rats): 0.561 ± 0.028 I.D. %/gram
Biodistribution ([5]; liver, 120 min, male Sprague-Dawley rats): 0.467 ± 0.023 I.D. %/gram
Biodistribution ([5]; lung, 5 min, male Sprague-Dawley rats): 0.833 ± 0.053 I.D. %/gram
Biodistribution ([5]; lung, 30 min, male Sprague-Dawley rats): 0.561 ± 0.021 I.D. %/gram
Biodistribution ([5]; lung, 60 min, male Sprague-Dawley rats): 0.491 ± 0.030 I.D. %/gram
Biodistribution ([5]; lung, 120 min, male Sprague-Dawley rats): 0.436 ± 0.018 I.D. %/gram
ability to cross the blood-brain-barrier (BBB) ([5]; male Sprague-Dawley rats, i.v.): able to cross BBB
Biodistribution ([5]; muscle, 5 min, male Sprague-Dawley rats): 0.430 ± 0.031 I.D. %/gram
Biodistribution ([5]; muscle, 30 min, male Sprague-Dawley rats): 0.451 ± 0.018 I.D. %/gram
Biodistribution ([5]; muscle, 60 min, male Sprague-Dawley rats): 0.376 ± 0.019 I.D. %/gram
Biodistribution ([5]; muscle, 120 min, male Sprague-Dawley rats): 0.315 ± 0.015 I.D. %/gram
Biodistribution ([5]; pancreas, 5 min, male Sprague-Dawley rats): 1.004 ± 0.147 I.D. %/gram
Biodistribution ([5]; pancreas, 30 min, male Sprague-Dawley rats): 0.546 ± 0.068 I.D. %/gram
Biodistribution ([5]; pancreas, 60 min, male Sprague-Dawley rats): 0.409 ± 0.029 I.D. %/gram
Biodistribution ([5]; pancreas, 120 min, male Sprague-Dawley rats): 0.330 ± 0.021 I.D. %/gram
Biodistribution ([5]; spleen, 5 min, male Sprague-Dawley rats): 0.672 ± 0.064 I.D. %/gram
Biodistribution ([5]; spleen, 30 min, male Sprague-Dawley rats): 0.509 ± 0.022 I.D. %/gram
Biodistribution ([5]; spleen, 60 min, male Sprague-Dawley rats): 0.446 ± 0.038 I.D. %/gram
Biodistribution ([5]; spleen, 120 min, male Sprague-Dawley rats): 0.398 ± 0.019 I.D. %/gram

O=[N+]([O-])c1ccc2c(c1)Sc1cc(OC/C=C/[125I])ccc1N2 [[^125I]SIL23]
Bmax (tau fibrils; tau fibrils): 4.57 pmol/nmol
Kd (tau fibrils; tau fibrils): 230 nM
affinity lower than α-synuclein fibrils (tau fibrils; tau fibrils versus α-synuclein fibrils): approximately 2 fold
Bmax (Aβ1-42 fibrils [6]; Aβ1-42 fibrils): 23.7 pmol/nmol
Kd (Aβ1-42 fibrils [6]; Aβ1-42 fibrils): 635 nM
affinity lower than that observed for α-synuclein fibrils (Aβ1-42 fibrils [6]; Aβ1-42 fibrils versus α-synuclein fibrils): 5 fold
